Data on one compound can be found in patent US20240245647A1, “ISOMEROHYDROLASE INHIBITOR FOR TREATMENT OF ATROPHIC FORM OF AGE-RELATED MACULAR DEGENERATION AND STARGARDT DISEASE” (The Trustees of Columbia University in the City of New York, priority 2021, published 2024).

Each structure is given as a SMILES string. Where two headings read alike, the source gives them in different places.

One data set deals with VAP-1. The data set is described as follows: in vitro. The settings on record: male, Beagle, dog, plasma, pH 7.4.
In another data set the target is T1, RPE65 (Bos taurus, UniProt Q28175).
T1 construct: Bovine RPE microsomes were prepared as described previously; from tissue; host or cells: bovine retinal pigment epithelium (RPE) microsomes
T1 sequence (Q28175 whole entry): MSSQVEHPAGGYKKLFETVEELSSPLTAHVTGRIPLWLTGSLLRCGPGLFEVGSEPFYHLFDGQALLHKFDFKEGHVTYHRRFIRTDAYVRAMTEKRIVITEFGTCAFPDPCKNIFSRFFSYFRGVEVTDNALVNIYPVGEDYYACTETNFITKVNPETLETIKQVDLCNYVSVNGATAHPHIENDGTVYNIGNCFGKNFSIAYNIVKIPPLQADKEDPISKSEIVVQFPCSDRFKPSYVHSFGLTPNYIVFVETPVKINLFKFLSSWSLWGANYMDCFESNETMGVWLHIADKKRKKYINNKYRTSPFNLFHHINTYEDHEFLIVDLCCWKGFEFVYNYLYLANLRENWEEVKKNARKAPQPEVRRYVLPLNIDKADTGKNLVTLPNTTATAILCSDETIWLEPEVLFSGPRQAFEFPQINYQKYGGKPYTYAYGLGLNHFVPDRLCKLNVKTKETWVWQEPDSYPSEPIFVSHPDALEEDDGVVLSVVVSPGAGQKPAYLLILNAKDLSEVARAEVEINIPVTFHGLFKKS
The data set is described as follows: In vitro retinol isomerase (isomerohydrolase, IMH) assay with bovine RPE microsomes. The class given is biochemical. The protocol: FIG. 2. Inhibition of the RPE65 isomerase activity by RPE65-61. Bovine RPE microsomes (20 μg) were incubated with 0.2 μM of all-trans-[3H]-retinol in the presence or absence of RPE65-61 for 1 h at 37° C. The generated retinoids were analyzed by HPLC coupled with flow scintillation analyzer. (FIG. 2A) HPLC elution profile without inhibitor; (FIG. 2B) with 375 nM of RPE65-61. Peak 1, retinyl esters; Peak 2, 11-cis-retinol; Peak 3 all-trans-retinol.
All-trans [11,12-^3H]-retinol (1 mCi/ml, 45.5 Ci/mmol, Perkin Elmer, Boston, MA) in N,N-dimethyl formamide (DMF) was used as the substrate for the isomerohydrolase assay. Bovine RPE microsomes were prepared as described previously. For each reaction, 25 μg microsomal proteins from the bovine RPE were added into 200 μl of reaction buffer (10 mM BTP, pH 8.0, 100 mM NaCl) containing 0.2 μM of all-trans retinol, 1% BSA and 25 μM of cellular retinaldehyde-binding protein (CRALBP). For the inhibition of isomerase activity, RPE65-61 dissolved in the DMF was added to the reaction prior to addition of all-trans retinol. The reaction was stopped and retinoids extracted with 300 μl of cold methanol and 300 μl of hexane and centrifuged at 10,000×g for 5 min. The upper layer was collected and the generated retinoids were analyzed by normal phase HPLC as described (Moiseyev, G. et al. 2003). […] The isomerohydrolase activity was calculated from the area of the 11-cis retinol peak using Radiomatic 610TR software (Perkin Elmer, Boston, MA) with synthetic 11-cis [^3H]-retinol as a standard. […] The retinoid profile after completion of the reaction was analyzed by HPLC where the peaks were identified by co-elution with retinoid standards. The RPE65 isomehydrolase activity was calculated based on the 11-cis retinol peak area as described (Moiseyev, G. et al. 2005; Nikolaeva, O. et al. 2009). […] The inhibition constant for RPE65-61 was calculated from the following equation: Ki=[I]/([…]) where [I] is concentration of inhibitor, Vm is maximal velocity in the absence of the inhibitor, and Vmi is maximal velocity in the presence of the inhibitor.

The term half-life denotes the time in which the quantity being followed falls by half. Low values mean rapid decline, high ones slow decline.

Protocol for VAP-1: Studies were carried out in mixed-gender human plasma (Lot #HMN330460) and male Beagle dog plasma (Lot #BGL118112), obtained from BioIVT and collected on sodium heparin. Plasma was adjusted to pH 7.4 prior to initiating the experiments. DMSO stocks were first prepared for the test articles. Aliquots of the DMSO solutions were dosed into 1 mL of plasma, which had been pre-warmed to 37° C., at a final test article concentration of 1 μM. The vials were kept in a benchtop Thermomixer® for the duration of the experiment. Aliquots (100 μL) were taken at each time point (0, 15, 30, 60, and 120 minutes) and added to 96-well plates, which had been pre-filled with 300 μL of acetonitrile (ACN). Samples were stored at 4° C. until the end of the experiment. After the final time point was sampled, the plate was mixed and then centrifuged at 3,000 rpm for 10 minutes. Aliquots of the supernatant were removed, diluted 1:1 into distilled water, and analyzed by LC-MS/MS. The peak area response ratio to internal standard (PARR) was compared to the PARR at time 0 to determine the percent of test article remaining at each time point. Half-lives were calculated using GraphPad software, fitting to a single-phase exponential decay equation.

In the data set on VAP-1, `N=S(=O)(CCN)c1cccc(OCC2CCCCC2)c1` (racemic) [RPE65-61, (±)-(2-aminoethyl) (3-(cyclohexylmethoxy)phenyl) (imino)-λ^6-sulfanone] gave a half-life at 1 μM of 35.3 min. The “RPE65 inhibition, in words” value at RPE65 is “effectively inhibit”. Also, the IC50 on RPE65 (bovine RPE microsomes, 0.2 μM all-trans-[3H]-retinol, read-out: apparent IC50, RPE65 isomerase activity) is 80 nM; on RPE65 (read-out: IC50 in the primary IMH / RPE65 inhibition assay), 95 nM.
